Data taken from US12252524B2, “GIP/GLP1 co-agonist compounds” (Eli Lilly and Company, priority 2018, dated 2025).
Numbered stars: 1 amine (or outer) side, 2 acyl side, 3 side chain; on linkers, the order of the positions; unused ones are H or OH. Square brackets hold non-standard residues; d marks the D form. Side chains are listed from the residue outwards. Peptide text beside a SMILES is read from it. * marks the point of attachment. C20 diacid = O=C(O)CCCCCCCCCCCCCCCCCCC(=O)*; γGlu = O=C(O)[C@H](CCC(=O)[*:2])N[*:1]; αMeF = C[C@](N)(Cc1ccccc1)C(=O)O; αMeL = CC(C)C[C@](C)(N)C(=O)O; AEEA = NCCOCCOCC(=O)O; Aib = CC(C)(N)C(=O)O

Legend:
[1] = target: T1, human Gcg receptor (Homo sapiens, UniProt P47871); assay: [125I]-Glucagon binding (SPA), human Gcg receptor; conditions: read-out: hGLcgR Ki, nM (SEM, n)
T1 construct: expressed in transfected cells; crude membranes
T1 sequence (P47871 26-477): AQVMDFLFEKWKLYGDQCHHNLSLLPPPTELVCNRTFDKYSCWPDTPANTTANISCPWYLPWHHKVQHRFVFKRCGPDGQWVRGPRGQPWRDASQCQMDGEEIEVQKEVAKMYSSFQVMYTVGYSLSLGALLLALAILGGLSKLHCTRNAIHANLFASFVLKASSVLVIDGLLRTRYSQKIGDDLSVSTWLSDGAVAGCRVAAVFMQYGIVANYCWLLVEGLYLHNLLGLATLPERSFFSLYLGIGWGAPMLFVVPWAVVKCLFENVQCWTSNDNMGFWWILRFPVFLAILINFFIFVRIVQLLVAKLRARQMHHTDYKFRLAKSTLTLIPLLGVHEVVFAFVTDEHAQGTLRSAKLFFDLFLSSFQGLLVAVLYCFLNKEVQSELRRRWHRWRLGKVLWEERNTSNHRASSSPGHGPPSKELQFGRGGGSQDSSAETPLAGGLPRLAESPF
Method in brief: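 Scintillation counts are taken after membranes and WGA beads incubate and settle for 12 hours at room temperature. Buffer is 25 mM HEPES, pH 7.4, with CaCl2, MgCl2, bacitracin and Tween-20. Ki values, from four-parameter IC50 fits, are geometric means over independent days.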

[2] = target: T2, human GIP receptor (Homo sapiens, UniProt P48546); assay: [125I]-GIP binding (SPA), human GIP receptor; conditions: read-out: hGIPR Ki, nM (SEM, n)
T2 construct: expressed in transfected cells; crude membranes
T2 sequence (P48546 22-466): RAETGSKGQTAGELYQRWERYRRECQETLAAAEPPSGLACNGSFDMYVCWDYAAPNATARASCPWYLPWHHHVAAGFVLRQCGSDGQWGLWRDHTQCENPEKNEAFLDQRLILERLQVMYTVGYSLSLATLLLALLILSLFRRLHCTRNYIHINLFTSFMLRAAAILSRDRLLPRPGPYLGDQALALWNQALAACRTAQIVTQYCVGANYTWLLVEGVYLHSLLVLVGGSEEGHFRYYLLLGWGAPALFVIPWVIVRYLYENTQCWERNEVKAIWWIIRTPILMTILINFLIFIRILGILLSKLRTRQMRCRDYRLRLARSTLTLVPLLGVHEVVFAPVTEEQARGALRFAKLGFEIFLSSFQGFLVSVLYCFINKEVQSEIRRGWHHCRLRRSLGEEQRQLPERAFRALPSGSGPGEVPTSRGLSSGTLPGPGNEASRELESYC

[3] = target: human GLP-1 receptor (GLP-1R) (Homo sapiens, UniProt P43220); assay: cAMP pharmacological functional assay in presence of casein, hGLP-1R; format: cell-based; conditions: HEK293 cells expressing hGLP-1R, 0.1% Casein, geometric mean; read-out: hGLP1R cAMP Rel EC50 nM (SEM, n)
human GLP-1 receptor (GLP-1R), sequence (P43220 24-463): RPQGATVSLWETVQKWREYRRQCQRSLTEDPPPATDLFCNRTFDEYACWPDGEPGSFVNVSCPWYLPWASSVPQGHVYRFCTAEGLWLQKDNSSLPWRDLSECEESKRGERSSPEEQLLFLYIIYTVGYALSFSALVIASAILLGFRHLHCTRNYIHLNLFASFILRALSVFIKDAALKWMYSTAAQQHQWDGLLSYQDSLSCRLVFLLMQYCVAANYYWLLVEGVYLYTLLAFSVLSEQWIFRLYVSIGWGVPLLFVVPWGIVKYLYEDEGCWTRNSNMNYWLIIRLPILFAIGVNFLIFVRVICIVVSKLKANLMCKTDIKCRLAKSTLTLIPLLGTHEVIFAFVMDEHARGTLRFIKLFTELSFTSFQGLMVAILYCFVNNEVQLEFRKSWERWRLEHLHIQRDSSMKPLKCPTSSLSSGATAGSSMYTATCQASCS

[4] = target: T3, gastric inhibitory peptide receptor (GIPR) (Homo sapiens, UniProt P48546); assay: cAMP pharmacological functional assay in presence of casein, hGIPR; format: cell-based; conditions: HEK293 cells expressing hGIPR, 0.1% Casein, geometric mean; read-out: hGIPR cAMP Rel EC50 nM (SEM, n)
T3 sequence (P48546 22-466): T2 sequence (P48546 22-466)

[5] = target: human GLP-1R (Homo sapiens, UniProt P43220); assay: [125I]-GLP-1 binding (SPA), human GLP-1 receptor; design: expressed in transfected cells; crude membranes; conditions: read-out: hGLP1R Ki, (nM) (SEM, n)
human GLP-1R, sequence (P43220 24-463): as above
Method in brief: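 Assay buffer: HEPES 25 mM, pH 7.4, CaCl2 2.5 mM, MgCl2 1 mM, with EDTA-free protease inhibitors. Receptor came from crude cell membranes prepared by homogenization and centrifugation at 4° C. IC50s came from four-parameter fits (maximum, minimum, IC50, Hill slope) and were expressed as Ki geometric means with SEM.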

| SMILES | Ki [1] [nM] | Ki [2] [nM] | EC50 [3] [nM] | EC50 [4] [nM] | Ki [5] [nM] |
| --- | --- | --- | --- | --- | --- |
| CC[C@H](C)[C@H](NC(=O)[C@H](Cc1ccccc1)NC(=O)[C@H](C)NC(=O)C(C)(C)NC(=O)[C@H](CCC(N)=O)NC(=O)[C@H](C)NC(=O)[C@H](CCCCNC(=O)COCCOCCNC(=O)COCCOCCNC(=O)CC[C@H](NC(=O)CCCCCCCCCCCCCCCCCCC(=O)O)C(=O)O)NC(=O)[C@H](CCCCN)NC(=O)[C@H](CC(=O)O)NC(=O)[C@H](CC(C)C)NC(=O)[C@H](CC(C)C)NC(=O)[C@@H](NC(=O)[C@H](CO)NC(=O)[C@H](Cc1ccc(O)cc1)NC(=O)[C@H](CC(=O)O)NC(=O)[C@H](CO)NC(=O)[C@@H](NC(=O)[C@H](Cc1ccccc1)NC(=O)[C@@H](NC(=O)CNC(=O)[C@H](CCC(=O)O)NC(=O)C(C)(C)NC(=O)[C@@H](N)Cc1ccc(O)cc1)[C@@H](C)O)[C@@H](C)O)[C@@H](C)CC)C(=O)N[C@@H](CCC(=O)O)C(=O)N[C@@H](Cc1ccc(O)cc1)C(=O)N[C@@H](CC(C)C)C(=O)N[C@@H](CC(C)C)C(=O)N[C@@H](CCC(=O)O)C(=O)NCC(=O)NCC(=O)N1CCC[C@H]1C(=O)N[C@@H](CO)C(=O)N[C@@H](CO)C(=O)NCC(=O)N[C@@H](C)C(=O)N1CCC[C@H]1C(=O)N1CCC[C@H]1C(=O)N1CCC[C@H]1C(=O)N[C@@H](CO)C(N)=O [Example 6] (H-Y[Aib]EGTFTSDYSILLDKK([AEEA-AEEA-γGlu-C20 diacid])AQ[Aib]AFIEYLLEGGPSSGAPPPS-NH2) | 55.8 | 0.0835 | 0.374 | 0.0899 | 6.71 |
| CC[C@H](C)[C@H](NC(=O)[C@H](CCCCNC(=O)COCCOCCNC(=O)COCCOCCNC(=O)CC[C@H](NC(=O)CCCCCCCCCCCCCCCCCCC(=O)O)C(=O)O)NC(=O)[C@H](CC(=O)O)NC(=O)[C@H](CC(C)C)NC(=O)[C@H](CC(C)C)NC(=O)[C@@H](NC(=O)[C@H](CO)NC(=O)[C@H](Cc1ccc(O)cc1)NC(=O)[C@H](CC(=O)O)NC(=O)[C@H](CO)NC(=O)[C@@H](NC(=O)[C@H](Cc1ccccc1)NC(=O)[C@@H](NC(=O)CNC(=O)[C@H](CCC(=O)O)NC(=O)C(C)(C)NC(=O)[C@@H](N)Cc1ccc(O)cc1)[C@@H](C)O)[C@@H](C)O)[C@@H](C)CC)C(=O)N[C@@H](C)C(=O)N[C@@H](CCC(N)=O)C(=O)NC(C)(C)C(=O)N[C@@H](C)C(=O)N[C@@H](Cc1ccccc1)C(=O)N[C@H](C(=O)N[C@@H](CCC(=O)O)C(=O)N[C@@H](Cc1ccc(O)cc1)C(=O)N[C@@H](CC(C)C)C(=O)N[C@H](C(=O)N[C@@H](CCC(=O)O)C(=O)NCC(=O)NCC(=O)N1CCC[C@H]1C(=O)N[C@@H](CO)C(=O)N[C@@H](CO)C(=O)NCC(=O)N[C@@H](C)C(=O)N1CCC[C@H]1C(=O)N1CCC[C@H]1C(=O)N1CCC[C@H]1C(=O)N[C@@H](CO)C(N)=O)[C@@H](C)CC)[C@@H](C)CC [Example 29] (H-Y[Aib]EGTFTSDYSILLDK([AEEA-AEEA-γGlu-C20 diacid])IAQ[Aib]AFIEYLIEGGPSSGAPPPS-NH2) | 132 | 0.377 | 0.999 | 0.32 | 8 |
| CC[C@H](C)[C@H](NC(=O)[C@H](CCCCN)NC(=O)[C@H](CC(=O)O)NC(=O)[C@H](CC(C)C)NC(=O)[C@H](CC(C)C)NC(=O)[C@@H](NC(=O)[C@H](CO)NC(=O)[C@H](Cc1ccc(O)cc1)NC(=O)[C@H](CC(=O)O)NC(=O)[C@H](CO)NC(=O)[C@@H](NC(=O)[C@H](Cc1ccccc1)NC(=O)[C@@H](NC(=O)CNC(=O)[C@H](CCC(=O)O)NC(=O)C(C)(C)NC(=O)[C@@H](N)Cc1c[nH]cn1)[C@@H](C)O)[C@@H](C)O)[C@@H](C)CC)C(=O)N[C@@H](C)C(=O)N[C@@H](CCC(N)=O)C(=O)N[C@@H](CCCCNC(=O)COCCOCCNC(=O)COCCOCCNC(=O)CC[C@H](NC(=O)CCCCCCCCCCCCCCCCCCC(=O)O)C(=O)O)C(=O)N[C@@H](C)C(=O)N[C@@H](Cc1ccccc1)C(=O)N[C@H](C(=O)N[C@@H](CCC(=O)O)C(=O)N[C@@H](Cc1ccc(O)cc1)C(=O)N[C@@H](CC(C)C)C(=O)N[C@@H](CC(C)C)C(=O)N[C@@H](CCC(=O)O)C(=O)NC(C)(C)C(=O)NCC(=O)N1CCC[C@H]1C(=O)N[C@@H](CO)C(=O)N[C@@H](CO)C(=O)NCC(N)=O)[C@@H](C)CC [Example 17] (H-H[Aib]EGTFTSDYSILLDKIAQK([AEEA-AEEA-γGlu-C20 diacid])AFIEYLLE[Aib]GPSSG-NH2; N-terminus assumed) | 261 | 0.606 | 0.152 | 5.81 | 7.63 |
| CC[C@H](C)[C@H](NC(=O)[C@H](CC(C)C)NC(=O)[C@H](Cc1ccc(O)cc1)NC(=O)[C@H](CCC(=O)O)NC(=O)[C@@H](NC(=O)[C@H](Cc1ccccc1)NC(=O)[C@H](C)NC(=O)[C@H](CCC(N)=O)NC(=O)[C@H](CCC(N)=O)NC(=O)[C@H](C)NC(=O)[C@H](CCCCNC(=O)COCCOCCNC(=O)COCCOCCNC(=O)CC[C@H](NC(=O)CCCCCCCCCCCCCCCCCCC(=O)O)C(=O)O)NC(=O)[C@H](CCC(=O)O)NC(=O)[C@H](CC(=O)O)NC(=O)[C@H](CC(C)C)NC(=O)[C@](C)(CC(C)C)NC(=O)[C@@H](NC(=O)[C@H](CO)NC(=O)[C@H](Cc1ccc(O)cc1)NC(=O)[C@H](CC(=O)O)NC(=O)[C@H](CO)NC(=O)[C@@H](NC(=O)[C@](C)(Cc1ccccc1)NC(=O)[C@@H](NC(=O)CNC(=O)[C@H](CCC(=O)O)NC(=O)C(C)(C)NC(=O)[C@@H](N)Cc1ccc(O)cc1)[C@@H](C)O)[C@@H](C)O)[C@@H](C)CC)[C@@H](C)CC)C(=O)N[C@@H](CCC(=O)O)C(=O)NCC(=O)NCC(=O)N1CCC[C@H]1C(=O)N[C@@H](CO)C(=O)N[C@@H](CO)C(=O)NCC(=O)N[C@@H](C)C(=O)N1CCC[C@H]1C(=O)N1CCC[C@H]1C(=O)N1CCC[C@H]1C(=O)N[C@@H](CO)C(N)=O [Example 121] (H-Y[Aib]EGT[αMeF]TSDYSI[αMeL]LDEK([AEEA-AEEA-γGlu-C20 diacid])AQQAFIEYLIEGGPSSGAPPPS-NH2) | 51.9 | 0.177 | 0.0849 | 0.076 | 3.16 |
| CC[C@H](C)[C@H](NC(=O)[C@H](CC(C)C)NC(=O)[C@H](Cc1ccc(O)cc1)NC(=O)[C@H](CCC(=O)O)NC(=O)[C@@H](NC(=O)[C@H](Cc1ccccc1)NC(=O)[C@H](C)NC(=O)C(C)(C)NC(=O)[C@H](CCC(N)=O)NC(=O)[C@H](C)NC(=O)[C@H](CCCCNC(=O)COCCOCCNC(=O)COCCOCCNC(=O)CC[C@H](NC(=O)CCCCCCCCCCCCCCCCCCC(=O)O)C(=O)O)NC(=O)[C@H](CCCCN)NC(=O)[C@H](CC(=O)O)NC(=O)[C@H](CC(C)C)NC(=O)[C@H](CC(C)C)NC(=O)[C@@H](NC(=O)[C@H](CO)NC(=O)[C@H](Cc1ccc(O)cc1)NC(=O)[C@H](CC(=O)O)NC(=O)[C@H](CO)NC(=O)[C@@H](NC(=O)[C@H](Cc1ccccc1)NC(=O)[C@@H](NC(=O)CNC(=O)[C@H](CCC(=O)O)NC(=O)C(C)(C)NC(=O)[C@H](N)Cc1ccc(O)cc1)[C@@H](C)O)[C@@H](C)O)[C@@H](C)CC)[C@@H](C)CC)C(=O)N[C@@H](CCC(=O)O)C(=O)NCC(=O)NCC(=O)N1CCC[C@H]1C(=O)N[C@@H](CO)C(=O)N[C@@H](CO)C(=O)NCC(=O)N[C@@H](C)C(=O)N1CCC[C@H]1C(=O)N1CCC[C@H]1C(=O)N1CCC[C@H]1C(=O)N[C@@H](CO)C(N)=O [Example 78] | 215 | 0.163 | 0.544 | 0.532 | 3.94 |
